US7923204B2, “Forward mutation assay based on 5-fluorouracil resistance” (priority 2003, dated 2011)
Like-named read-outs stand apart in the source and are kept apart here.

Tests used:
[1] = system: sister chromatid exchange; details: cited from earlier work
[2] = system: mouse lymphoma; details: cited from earlier work
[3] = system: chromosome aberrations; details: cited from earlier work
[4] = system: FU100
Experimental: Briefly, in order to practice the disclosed mutation assay one-ml aliquots of exponentially growing bacteria are exposed to the test agent for two hours in the presence and absence of a metabolic activation system, such as a mammalian (i.e., rat, hamster or human) liver homogenate (S9-fraction or liver microsomal enzymes). The aliquots are then diluted, allowed to grow for 3 hours, and assessed for treatment-related toxicity/inhibition by optical density. The cultures are subsequently diluted a second time and grown overnight to permit full recovery from toxicity and to allow expression of the FU^R phenotype. Samples of the cultures are then plated in 384-well microtiter dishes in the presence of 2 μg/ml 5-FU and the pH-sensitive indicator bromcresol purple. Three days later positive wells containing FU^R colonies are detected by their yellow color and enumerated. Treated cultures are then compared to control plates to determine genotoxic activity.
For each mutation experiment, two frozen 1-ml aliquots of FU100 were quickly thawed in a 37° C. water bath, pelleted by centrifugation, washed to remove the DMSO, and suspended in 35 mL of MinE medium. The culture was shaken for approximately 1 hour at 37° C. until the optical density at 600 nm (OD600) reached the target density of 0.3. A 16-ml aliquot of culture was added to each of two 50-ml tubes containing 3.6 ml of a NADPH-generating system (5.6 mM glucose-6-phosphate, 4.5 mM NADP+, 5 mM sucrose, 110 mM Na2HPO4, 37 mM KCl, and 9 mM MgCl2) and either 0.4 ml rat liver S-9 or an equal volume of sodium phosphate buffer. Aliquots of these mixtures were distributed into three 12-well cluster dishes (one for exposure with S-9, one for exposure without S-9, one for controls with and without S-9), and exposed to test compounds as 1-ml aliquots for 2 hour as outlined in FIG. 1.
Following treatment, the 1-ml aliquots were transferred into 9 ml of warm MinE medium in a 50 ml tube and incubated at 37° C. on a rotary wheel for 3 hours. Next, 20 ml of medium was added to each culture tube and 0.25 ml aliquots were transferred to a 96-well plate for OD600 measurements to assess toxicity (OD Day 1). […] Bulk cultures were then incubated overnight in the dark at 30° C. to permit recovery from toxicity and to allow time for the test cells to express the FU^R phenotype.
The next day, OD600 was again assessed to adjust cell number plated on 5-FU plates (OD Day 2; 100 μl of the culture diluted with 150 μl MinE medium for OD600 measurements). For plating, a 35 μl aliquot of each culture was added to 31.4 mL of MinE medium with 2 μg/ml of 5-FU and 10 μg/ml of bromcresol purple. The mixture was then dispersed into a 384-well plate (75 μl/well) and placed at 37° C. for 3 days in a humidified incubator.
The data obtained for both survival (OD day 1), relative number of cells plated (OD day 2), and number of positive wells were imported into an Excel template.
Table 8 summarizes the criteria for positive result in 5-FU assay using the FU100 tester strain described and claimed herein. […] A positive compound was defined when two or more doses met the aforementioned criteria.

[5] = system: FU100; remark: listed apart in the source
[6] = system: Salmonella; details: cited from earlier work
[7] = system: micronucleus; details: cited from earlier work
[8] = NTP Results Report 12 Aug. 2002
[9] = in the presence of S9 activation (+), FU100, 2 h exposure
[10] = without S9 activation (−), FU100, 2 h exposure
[11] = in the presence of S9 activation (+), approximate, first dose with greater than 50% survival by optical density on Day 1
[12] = without S9 activation (−), approximate, first dose with greater than 50% survival by optical density on Day 1
[13] = NTP Results Report 12 Aug. 2002 or cited reference (footnotes f, g, i, j)

Row | Compound | NTP Results: SC = sister chromatid exchange [1, 8] | NTP Results: ML = mouse lymphoma [2, 8] | NTP Results: CA = chromosome aberrations [3, 8] | Results (5-FU assay) [4, 9] | Results (5-FU assay) [4, 10] | LD50 [5, 11] [µg/mL] | LD50 [5, 12] [µg/mL] | NTP Results: SA = Salmonella [6, 13] | Lowest Positive Dose ([4]; without S9 activation (−), lowest dose tested giving a positive response) [µg/mL] | NTP Results: SC = sister chromatid exchange [1] | NTP Results: ML = mouse lymphoma [2] | NTP Results: MN = micronucleus [7] | NTP Results: CA = chromosome aberrations [3] | NTP Results: SA = Salmonella [6] | Results (5-FU assay) [4] | response in the 5-FU Assay (in words) [4] | NTP Results: MN = micronucleus [7, 8] | LD50 ([5]; Salmonella typhimurium) [µg/mL]
1 | Oc1ccc(Cl)cc1Cl [2,4-Dichlorophenol] | + | + | − | Neg | Neg |  |  |  |  |  |  |  |  |  |  |  |  | 
2 | Nc1ccc([N+](=O)[O-])cc1O [2-Amino-5-nitrophenol] | (SA+, CA+, SC+, ML+) | (SA+, CA+, SC+, ML+) | (SA+, CA+, SC+, ML+) | Neg | Pos | >150 | >300 | (SA+, CA+, SC+, ML+) | 2.8 |  |  |  |  |  |  |  |  | 
3 | Nc1ncn([C@@H]2O[C@H](CO)[C@@H](O)[C@H]2O)c(=O)n1 [5-Azacytidine] |  |  |  |  |  | >5 | >3 |  |  | (SA+, CA+, SC+, ML+, MN+) | (SA+, CA+, SC+, ML+, MN+) | (SA+, CA+, SC+, ML+, MN+) | (SA+, CA+, SC+, ML+, MN+) | (SA+, CA+, SC+, ML+, MN+) | Pos |  |  | 
4 | Oc1cccc2cccnc12 [8-Hydroxyquinoline] |  |  |  |  |  |  |  |  |  | (SA+, CA+^w, SC+, ML+, MN−) | (SA+, CA+^w, SC+, ML+, MN−) | (SA+, CA+^w, SC+, ML+, MN−) | (SA+, CA+^w, SC+, ML+, MN−) | (SA+, CA+^w, SC+, ML+, MN−) |  | positive compounds in toxic concentrations |  | 
5 | COc1ccc(O)c(C(C)(C)C)c1 [Butylated Hydroxyanisole] |  |  |  | Neg | Neg | >30 | >30 | (SA−, MN−) |  |  |  |  |  |  |  |  | (SA−, MN−) | 
6 | CCCCC(CC)COC(=O)c1ccccc1C(=O)OCC(CC)CCCC (stereo not drawn) [Di (2-ethylhexyl) phthalate] |  |  |  |  |  | >5000 | >5000 |  |  | (SA−, CA−, SC+−?, ML−, MN?) | (SA−, CA−, SC+−?, ML−, MN?) | (SA−, CA−, SC+−?, ML−, MN?) | (SA−, CA−, SC+−?, ML−, MN?) | (SA−, CA−, SC+−?, ML−, MN?) | Neg | negative/non-toxic |  | 
7 | CC/C(=C(/CC)c1ccc(O)cc1)c1ccc(O)cc1 [Diethylstilbestrol] | − | + | + |  |  |  |  |  |  |  |  |  |  | (SA−, CA+, SC−, ML+) | Neg |  |  | 
8 | OCCO [Ethylene Glycol] |  |  |  |  |  |  |  |  |  | (SA−, CA−, SC−, ML−) | (SA−, CA−, SC−, ML−) |  | (SA−, CA−, SC−, ML−) | (SA−, CA−, SC−, ML−) | Neg |  |  | >5000
